Type in all cases: cell-based, human
Data set [1] concerns A549/T cells (PTX-resistant, ABCB1-overexpressing NSCLC cells). The experiment in a line: SRB cell cytotoxicity / MDR reversal assay. The following applies: for fold reversal: drug alone (reference). As to the method: (§1) Sulphorhodamine B (SRB) assays were used for cell density determination, based on sensitive measure of total cellular protein, which perform similarly compared with other proliferation assays such as MTT assay. Briefly, cells were seeded into flat bottomed 96-well plates at an initial density of 7.5×10^3 per well before treatment. […] After removing the medium, cells were fixed in 10% trichloroacetic acid for 1 h at 4° C. and then washed with water five times. 0.4% SRB dissolved in 1% v/v acetic acid was added and incubated […] for staining. The cells were quickly washed with 1% acetic acid and left to dry overnight. The protein bound SRB was solubilized by adding 200 μl 10 mM Tris buffer per well and was measured at wavelengths 490 nm using a plate reader (Spectra MAX 250; Molecular Devices, Sunnyvale, Calif.). The optical density of SRB in each well is directly proportional to the cell number.

Data set [2] deals with A2780/T cells (PTX-resistant, ABCB1-overexpressing ovarian cancer cells). The experiment in a line: cells. The following applies: for IC50: read-out: IC50 ± SD. The procedure: as §1
For data set [3], the system named is A2780/T cells. The experiment in a line: Intracellular accumulation of doxorubicin and Flutax-2. As to conditions: 8 h, 4.5 μM nobiletin or 20 μM QND.
A further data set relates to A2780 cells. The experiment in a line: Cell cycle analysis (PI, flow cytometry). As to conditions: A2780, PTX 0.01 μM.
The test system of data set [4] is A2780/T cells. The experiment in a line: Combination index, Chou-Talalay method (CalcuSyn). As to conditions: Homo sapiens, A2780, read-out: Dose PTX at Fa = 0.5 (ED50), CalcuSyn simulation, A2780/T; PTX dose, alone or in the combination.
Data set [5] relates to A2780/T cells. The experiment in a line: Colony formation assay. As to conditions: 9 μM nobiletin alone or 0.94 μM PTX alone, 12 days. The text has this: The A2780/T cells were trypsinized and plated in fresh culture medium at a density of 600 cells/9.6 cm^2 plate. Subsequently, the cells were fixed with 70% ethanol and stained with crystal violet (0.5% in ethanol). The plates were rinsed with phosphate buffered saline (PBS), and the colony numbers were counted using the software of Quantity one-Colony counting.

In data set [6] the test system is A2780/T cells. The experiment in a line: Cell cycle analysis (PI, flow cytometry). The following applies: 0.94 μM PTX, no nobiletin. As to the method: A2780/T cells were harvested 24 hours, 48 hours, or 72 hours after treatment and washed twice with ice-cold PBS. The cells were fixed and permeabilized with 70% ice-cold ethanol overnight at 4° C. or 2 h at −20° C. After one additional wash in PBS, cells were stained with a staining solution containing propidium iodide (PI) ([…]) and RNase A (250 μg/ml) for 30 min at room temperature. They were then pelleted, washed and suspended in PBS to a final concentration of 1×10^6/ml and analyzed by flow cytometry BD FACS Aria (BD Biosciences, San Jose, Calif.).

The subject of data set [7] is A2780/T cells. The experiment in a line: Apoptosis analysis by Annexin-V/PI double staining. As to conditions: 9 μM nobiletin alone or 0.94 μM PTX alone. The procedure: After treatment, 1×10^6 cells were collected, washed and suspended in 100 μl of binding buffer (10 mM N-2-hydroxyethylpiperazine-N,-2-ethanesulfonic acid/NaOH, 140 mM NaCl, 2.5 mM CaCl2, pH 7.4). Apoptotic cells were identified by double supravital staining with 5 μl recombinant FITC (fluorescein isothiocyanate)-conjugated Annexin-V and 5 μl PI (50 μg/ml). The cells were stained for […] at room temperature in the dark, and analyzed by fluorescence-activated cell sorting cater-plus flow cytometry. Data acquisition and analysis were performed in BD FACS Aria with FlowJo software.

The mark [8] stands for this setting: Homo sapiens, A549, 48 h, 48 h, SRB, drug alone (no nobiletin).
[9] abbreviates: A2780/T, 48 h, drug +0.5 μM nobiletin (N).
Where [10] appears, read: A2780/T, 48 h, drug +1.5 μM nobiletin (N).
[11] abbreviates: A2780/T, 48 h, drug +4.5 μM nobiletin (N).
Setting [12] is: Homo sapiens, A2780, 48 h, A2780/T, 48 h, SRB, drug alone (no nobiletin).

In general, IC50 refers to the concentration that gives 50% inhibition.

Where two headings read alike, the source gives them in different places.

For `COc1cccc2c1C(=O)c1c(O)c3c(c(O)c1C2=O)C[C@@](O)(C(=O)CO)C[C@@H]3O[C@H]1C[C@H](N)[C@H](O)[C@H](C)O1` [Doxorubicin], the IC50 in data set [1] (setting [8]) worked out at 5970 ± 490 nM; in data set [1] (drug +0.5 μM nobiletin (N)) it was 4230 ± 350 nM; in data set [1] (drug +1.5 μM nobiletin (N)), 2670 ± 220 nM; in data set [1] (drug +4.5 μM nobiletin (N)) it was 1190 ± 100 nM; in data set [2] (setting [9]), 3.77 ± 0.3 µM; in data set [2] (setting [10]), 1.89 ± 0.16 µM. Further, the IC50 is 1.13 ± 0.18 µM in data set [2] (setting [11]); 0.38 ± 0.04 µM in data set [2] (A2780/T, 48 h, drug +9 μM nobiletin (N)); 5.97 ± 0.49 µM in data set [2] (setting [12]). Also, the “Fold reversal (IC50 without / with nobiletin)” value is 1.42 ± 0.23 fold in data set [1] (drug +0.5 μM nobiletin); 2.25 ± 0.37 fold in data set [1] (drug +1.5 μM nobiletin); 5.01 ± 0.01 fold in data set [1] (drug +4.5 μM nobiletin); 5.01 fold in data set [1] (drug +4.5 μM nobiletin, listed as doxorubicin). In addition, the fold reversal in data set [1] and in data set [2] was 1.00 fold in each case. In addition, the “degree of resistance: mean IC50 in A2780/T cells relative to A2780” value in data set [2] is 158 fold.
On to `COc1cccc2c1C(=O)c1c(O)c3c(c(O)c1C2=O)C[C@@](O)(C(C)=O)C[C@@H]3O[C@H]1C[C@H](N)[C@H](O)[C@H](C)O1` [Daunorubicin], for which the IC50 in data set [1] (setting [8]) worked out at 10100 ± 1630 nM; in data set [1] (drug +0.5 μM nobiletin (N)), 5970 ± 490 nM; in data set [1] (drug +1.5 μM nobiletin (N)) it was 2840 ± 460 nM; in data set [1] (drug +4.5 μM nobiletin (N)), 710 ± 130 nM; in data set [2] (Homo sapiens, A2780, 48 h) it was 11.9 ± 0.97 µM. The “Fold reversal (IC50 without / with nobiletin)” value in data set [1] (drug +0.5 μM nobiletin) is given as 1.68 ± 0.14 fold; in data set [1] (drug +1.5 μM nobiletin), 3.55 ± 0.01 fold; in data set [1] (drug +4.5 μM nobiletin) it was 14.17 ± 0.04 fold; in data set [1] (drug +4.5 μM nobiletin, listed as daunorubicin) it was 14.17 fold. Moreover, the fold reversal in data set [1] and in data set [2] was 1.00 fold throughout.
For the compound `O=c1[nH]cc(F)c(=O)[nH]1` [5-Fluorouracil], the IC50 in data set [1] (setting [8]) amounted to 134000 ± 10900 nM; in data set [1] (drug +4.5 μM nobiletin (N)), 16800 ± 1360 nM; in data set [2] (setting [9]), 132 ± 23.8 µM; in data set [2] (setting [10]), 79.8 ± 9.18 µM; in data set [2] (setting [11]), 26.1 ± 1.77 µM; in data set [2] (setting [12]), 159 ± 18.3 µM. The “Fold reversal (IC50 without / with nobiletin)” value in data set [1] (drug +0.5 μM nobiletin) stood at 1.26 ± 0.01 fold; in data set [1] (drug +1.5 μM nobiletin), 1.99 ± 0.01 fold; in data set [1] (drug +4.5 μM nobiletin), 7.94 ± 0.02 fold; in data set [1] (drug +4.5 μM nobiletin, listed as 5-fluorouracil), 7.94 fold. In addition, the fold reversal in data set [1] and in data set [2] was 1.00 fold in each case.
On to `CC(=O)O[C@@]12CO[C@@H]1C[C@H](O)[C@@]1(C)C(=O)[C@H](O)C3=C(C)[C@@H](OC(=O)[C@H](O)[C@@H](NC(=O)OC(C)(C)C)c4ccccc4)C[C@@](O)([C@@H](OC(=O)c4ccccc4)[C@H]21)C3(C)C` [Docetaxel], for which the IC50 in data set [1] (setting [8]) was 13400 ± 1090 nM; in data set [1] (drug +0.5 μM nobiletin (N)) it was 8430 ± 690 nM; in data set [1] (drug +1.5 μM nobiletin (N)) it was 2670 ± 220 nM; in data set [1] (drug +4.5 μM nobiletin (N)), 710 ± 110 nM; in data set [2] (setting [9]), 8.97 ± 1.46 µM; in data set [2] (setting [11]), 1.13 ± 0.18 µM. For the same compound, the IC50 in data set [2] (setting [12]) is 17.9 ± 2.89 µM; in data set [2] (Homo sapiens, A2780, 48 h, A2780/T, 48 h, drug +1.5 μM nobiletin (N)), 3.57 ± 0.58 µM. Moreover, the “Fold reversal (IC50 without / with nobiletin)” value in data set [1] (drug +0.5 μM nobiletin) is listed as 1.59 ± 0.01 fold; in data set [1] (drug +1.5 μM nobiletin), 5.05 ± 0.82 fold; in data set [1] (drug +4.5 μM nobiletin) it was 19.18 ± 4.59 fold; in data set [1] (drug +4.5 μM nobiletin, listed as docetaxel) it was 19.18 fold. For the same compound, the fold reversal in data set [1] and in data set [2] was 1.00 fold in each case.
On to `C=C[C@H]1C[N@@]2CC[C@H]1C[C@@H]2[C@@H](O)c1ccnc2ccc(OC)cc12` [QND, quinidine], for which the “intracellular accumulation of DOX” value in the data set on A2780/T cells [3] (5 μM DOX) was “higher than that in untreated A2780/T”. Moreover, the “intracellular accumulation of Flutax-2” value in the data set with A2780/T cells [3] (Flutax-2 1 μM) is “higher than that in untreated A2780/T”.
For the compound `CC(=O)O[C@H]1C(=O)[C@@]2(C)[C@H]([C@H](OC(=O)c3ccccc3)[C@]3(O)C[C@H](OC(=O)[C@H](O)[C@@H](NC(=O)c4ccccc4)c4ccccc4)C(C)=C1C3(C)C)[C@]1(OC(C)=O)CO[C@@H]1C[C@@H]2O` [Paclitaxel], the G1 phase content in the data set with A2780 cells (24 hours) is recorded as 46.47%; with A2780 cells (48 hours), 15.57%; in the data set with A2780 cells (72 hours), 5.53%. Further, the G2-M content with A2780 cells (24 hours) amounted to 31.9%; with A2780 cells (48 hours), 63.2%; in the data set on A2780 cells (72 hours) it was 80.07%. The EC50 with A2780/T cells [4] was 4.2 µM. Also, the concentration for half-maximal inhibition (IC50) in data set [1] (setting [8]) amounted to 1890 ± 150 nM; in data set [1] (drug +0.5 μM nobiletin (N)), 750 ± 60 nM; in data set [1] (drug +1.5 μM nobiletin (N)), 340 ± 20 nM; in data set [1] (drug +4.5 μM nobiletin (N)) it was 90 ± 10 nM; in data set [1] (drug +9 μM nobiletin (N)), 30 ± 4 nM; in data set [2] (Homo sapiens, A2780, 48 h), 2.51 µM. Also, the “Fold reversal (IC50 without / with nobiletin)” value in data set [1] (drug +0.5 μM nobiletin) is given as 2.51 ± 0.01 fold; in data set [1] (drug +0.5 μM nobiletin, listed as PTX) it was 2.51 fold; in data set [1] (drug +1.5 μM nobiletin) it was 5.65 ± 0.8 fold; in data set [1] (drug +1.5 μM nobiletin, listed as PTX), 5.65 fold; in data set [1] (drug +4.5 μM nobiletin), 22.33 ± 3.6 fold; in data set [1] (drug +4.5 μM nobiletin, listed as PTX) it was 22.33 fold. Moreover, the “Fold reversal (IC50 without / with nobiletin)” value in data set [1] (drug +4.5 μM nobiletin, listed as paclitaxel) is given as 22.33 fold; in data set [1] (drug +9 μM nobiletin), 62.88 ± 0.98 fold; in data set [1] (drug +9 μM nobiletin, listed as PTX), 62.88 fold. The fold reversal in data set [1] and in data set [2] was 1.00 fold each time. For the same compound, the “inhibition of colony formation, single agent” value in the data set on A2780/T cells [5] is on record as “no inhibition”. This compound also gave a G1 phase cells in the data set on A2780/T cells [6] of 72%. For the same compound, the G2 phase cells with A2780/T cells [6] stood at 17%. Also, the “apoptosis induction, single treatment” value with A2780/T cells [7] is “did not show apoptosis induction”. For the same compound, in data set [2], the “degree of resistance: mean IC50 in A2780/T cells relative to A2780” value was found to be 501 fold.

The record behind these values is patent publication US9808477B2 (Macau University of Science and Technology, priority 2015, dated 2017).
